≈ marks a conversion by molar mass, not a printed value. Where “and” joins values, the source holds several entries; their conditions need not be identical. Equal entries are not always repeated.
How the values were obtained:
Bibionidae = conditions: chronic/long-term
Lepomis macrochirus = conditions: acute, duration: 96 hours
Apis mellifera = conditions: acute, mortality
Daphnia magna = conditions: chronic/long-term; duration: 21 days
Canidae = conditions: oral, Dog Other, clinical signs
Aphidius rhopalosiphi = assay: LR50; higher = less toxic; conditions: not reported; mortality
Pontoscolex corethrurus = conditions: acute; mortality
Neomysis kadiakensis = conditions: chronic/long-term; duration: 28 days
[1] = short-term, duration: 5 days, oral, diet, food consumption

N#Cc1nn(-c2c(Cl)cc(C(F)(F)F)cc2Cl)c(N)c1S(=O)C(F)(F)F (centres undefined) [Fipronil]
LD50 (Rattus norvegicus; acute, oral, M, mortality): 92 mg/kg
NOAEL (Rattus norvegicus; chronic, duration: 2 years, clinical signs): 0.02 mg/kg-day
NOAEL (Rattus norvegicus; developmental, development): 0.9 mg/kg-day
NOEL (Rattus norvegicus; reproduction developmental, M, reproduction): 2.53 mg/kg-day
NOAEL (Rattus norvegicus; subchronic, duration: 90 days, oral, clinical signs): 0.35 mg/kg-day
NOEC (Bibionidae): 0.193 µg/kg
NOEC (Bibionidae; duration: 28 days): 0.000117 mg/L
LC50 (Lepomis macrochirus; mortality): 0.0852 mg/L (≈ 0.195 µM)
LD50 (Apis mellifera; dermal): 0.00593 µg/piece
LD50 (Apis mellifera; oral, unspecified): 0.00417 µg/piece
LC50 (Cyprinodon variegatus; acute, duration: 96 hours): 0.13 mg/L (≈ 0.297 µM)
NOEC (Cyprinodon variegatus; chronic/long-term, duration: 138 days): 0.006 mg/L
NOEC (Oncorhynchus mykiss; chronic/long-term, duration: 90 days): 0.015 mg/L
NOEC (Daphnia magna): 0.0098 mg/L
LC50 (Tagia sp.; acute, mortality): > 1000 mg/kg
NOEC (Tagia sp.; chronic/long-term): 1000 mg/kg
LD50 (Colinus virginianus; acute, oral, mortality): 11.3 mg/kg
NOEL (Colinus virginianus; reproduction developmental): 0.88 mg/kg-day
NOEL (Colinus virginianus; [1]): 3.77 mg/kg-day
NOAEL (Canidae; chronic, duration: 1 years): 0.35 mg/kg-day
NOAEL (Canidae; subchronic, duration: 90 days): 0.35 mg/kg-day
LR50 (Aphidius rhopalosiphi): 0.01 g/ha

N#Cc1nn(-c2c(Cl)cc(C(F)(F)F)cc2Cl)c(N)c1C(F)(F)F [Fipronil desulfinyl]
NOEL (Colinus virginianus; [1]): 7.12 mg/kg-day

N#Cc1nn(-c2c(Cl)cc(C(F)(F)F)cc2Cl)c(N)c1SC(F)(F)F [Fipronil sulfide]
NOEC (Bibionidae; duration: 28 days): 0.000117 mg/L and 0.000193 mg/kg
LC50 (Pontoscolex corethrurus): > 1000 mg/kg
NOEC (Neomysis kadiakensis): 4.6e-06 mg/L
LC50 (Oncorhynchus mykiss; acute, duration: 96 hours, mortality): 0.0295 mg/L (≈ 0.07 µM)
NOEC (Daphnia magna): 0.013 mg/L
NOEL (Colinus virginianus; [1]): 6.98 mg/kg-day

N#Cc1nn(-c2c(Cl)cc(C(F)(F)F)cc2Cl)c(N)c1S(=O)(=O)C(F)(F)F [Fipronil sulfone]
NOEC (Bibionidae): 6.9e-05 mg/L
NOEC (Bibionidae; duration: 28 days): 0.165 µg/kg
LC50 (Lepomis macrochirus): 0.025 mg/L (≈ 0.0552 µM)
LC50 (Pontoscolex corethrurus): > 1000 mg/kg
NOEL (Colinus virginianus; [1]): 7.83 mg/kg-day

Reference: EPA's ToxValDB 9.5 (doi:10.2903/j.efsa.2006.65r)
